Like-named read-outs stand apart in the source and are kept apart here.
Tests used:
A. brassicicola = type: cell-based, Alternaria brassicicola; details: for 50% growth inhibitory concentration (IC50): 48 h
Description: (§1) Next, we assessed the potential antifungal activity of At25 (ARACIN1) and At20 (ARACIN2) by an in vitro antifungal bioassay. Both propeptide and mature forms of At25 and At20 were produced by chemical synthesis (see Materials and Methods) and tested against A. brassicicola, B. cinerea B05-10 and B. cinerea Korea by means of a microtiter broth dilution assay (FIG. 9).
(§2) 11. Antifungal Activity Assay
(§3) Synthetic proAt25 peptide, mature At25 peptide, proat20 and mature At20 peptides were purchased from genscript (on the World Wide web at genscript.com). Stock solutions of 2×10^7 spores/ml of Botrytis cinerea B05-10, Botrytis cinerea Korea, Fusarium oxysporum and Alternaria brassicicola were diluted in ½ PDB (12 g/l Potato Dextrose Broth in water) to a final concentration of 2×10^4 spores/ml. After adding 196 μl aliquots of these spore dilutions to 4 μl of 2-fold dilution series of At25 in DMSO (starting from a 100 μg/ml stock solution) in microtiter plates, the plates were incubated on 23° C. for 48 h. DMSO was used as a negative control. Growth of the fungi was evaluated both microscopically and by measuring the OD600. Each fungus was tested in duplicate in the microtiter plates. Additionally, for Alternaria brassicicola this antifungal assay was repeated twice. For each assay, the average OD600 of each dilution and the DMSO control were compared using a t-test.

B. cinerea B05-10 = type: cell-based, Botrytis cinerea
Description: as §1, §2, §3

B. cinerea Korea = type: cell-based, Botrytis cinerea; details: for growth inhibition: Korea
Description: as §1, §2, §3

Substance: H-GSCGAPISKYDFQVLAKRPPPCRRPRLENTEDVTHTTRP-OH (cysteine pairing not given here) [mature At20]
- 50% growth inhibitory concentration (IC50) (A. brassicicola): 1.55 ± 0.11 µg/mL
- reduction of IC50 value compared with the propeptide (proAt20) (A. brassicicola; A. brassicicola, mature At20 versus proAt20): 86%
- antifungal activity in comparison with proAt20 (in words) (B. cinerea B05-10; B. cinerea B05-10): remarkably increased
- antifungal activity in comparison with proAt20 (in words) (B. cinerea Korea; B. cinerea Korea): remarkably increased

Substance: H-GSCGASIAEFNSSQILAKRAPPCRRPRLQNSEDVTHTTLP-OH (cysteine pairing not given here) [mature At25]
- 50% growth inhibitory concentration (IC50) (A. brassicicola): 5.46 ± 0.57 µg/mL
- concentration from which growth inhibition / statistically significant antifungal effect starts (A. brassicicola; A. brassicicola): 1 µg/mL
- growth inhibition (B. cinerea B05-10; B05-10, 10 μg mL^−1): 95.7%
- 50% growth inhibitory concentration (IC50) (B. cinerea B05-10; B05-10, 48 h): 3.05 ± 0.25 µg/mL
- 50% growth inhibitory concentration (IC50) (B. cinerea Korea; B. cinerea Korea, 48 h, 23° C., OD600): 2.03 ± 0.44 µg
- growth inhibition (B. cinerea Korea; 10 μg mL^−1): 94%

Substance: NH2-RRSDTGPDISTPPSGSCGASIAE FNSSQILAKRAPPCRRPRLQNSEDVTHTTLP-COOH (H-RRSDTGPDISTPPSGSCGASIAEFNSSQILAKRAPPCRRPRLQNSEDVTHTTLP-OH; cysteine pairing not given here; listed as Arabidopsis thaliana) [proAt25]
- inhibitory activity (in words) (A. brassicicola; A. brassicicola, data not shown): no statistically significant inhibitory activities
- inhibitory activity (in words) (B. cinerea B05-10; B. cinerea B05-10, data not shown): no statistically significant inhibitory activities
- inhibitory activity (in words) (B. cinerea Korea; B. cinerea Korea, data not shown): no statistically significant inhibitory activities

Substance: NH2-SIPDDDMGPAIYTPPSGSCGA PISKYDFQVLAKRPPPCRRPRLENTEDVTHTTRP-COOH [proAt20]
- growth inhibition (A. brassicicola; 5 μg mL^−1): 36.7%
- 50% growth inhibitory concentration (IC50) (A. brassicicola): 11.32 ± 1.28 µg/mL
- concentration from which growth inhibition / statistically significant antifungal effect starts (A. brassicicola; A. brassicicola): 5 µg/mL
- growth inhibition (B. cinerea B05-10; B05-10, 20 μg mL^−1): 62%
- concentration from which statistically significant antifungal effect starts (B. cinerea B05-10; B. cinerea B05-10): 20 µg/mL
- concentration from which statistically significant antifungal effect starts (B. cinerea Korea; B. cinerea Korea): 20 µg/mL
- growth inhibition (B. cinerea Korea; 20 μg mL^−1): 64.8%

Source: patent US9422573B2, “Methods and means for generating microbial disease resistant plants” (VIB VZW, priority 2011, dated 2016)
